*1 amine or outer side, *2 acyl side, *3 side chain or, on linkers, in order; H or OH if unused. Where a SMILES comes first, the peptide text is derived from it. [ ]: non-standard residue; d: D form. The star is where a group is joined. X3 = Cc1cc(F)cc(-c2cnc(NCCNC(=O)CCOCCOCCOCCOCCC(=O)*)c(-c3nc4ccc(Cl)cc4[nH]3)c2N2CCC(N)CC2)c1; X1 = Cc1cc(F)cc(-c2cnc(*)c(-c3nc4ccc(Cl)cc4[nH]3)c2N2CCC(N)CC2)c1; Dolaproine = CO[C@@H]([C@@H]1CCCN1)[C@@H](C)C(=O)O; Dil = CC[C@H](C)[C@H](NC)[C@@H](CC(=O)O)OC; PABC = O=C(OCc1ccc(N[*:1])cc1)[*:2]; X2 = C[C@@H](N*)[C@@H](O)c1ccccc1; Cit = NC(=O)NCCC[C@H](N)C(=O)O; PEG4 = NCCOCCOCCOCCOCCC(=O)O; NMeV = CN[C@H](C(=O)O)C(C)C; PEG1 = NCCOCCC(=O)O; βAla = NCCC(=O)O
Experiments:
Format in all cases: cell-based
[1] = test system: NCI-H524 human small cell lung cancer cells; assay: H524 assay: inhibition of cell proliferation (CellTiter Glo); settings: 2 h treatment, washout, additional 70 h incubation
In short: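 Proliferation was measured by CellTiter Glo 70 h after a washout that followed a 2 h pulse of NDC. Doses were an 11-point, two-fold dilution series from 1 uM. IC50 was fitted with a four-parameter model to luminescence-based % inhibition relative to control cells.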

SST2 = target: T1, SST2 (Homo sapiens, UniProt P30874); assay: PathHunter CHO-K1 SST2 Internalization Assay; settings: PathHunter CHO-K1 SST2 cells; 90 min at 37 C; luminescence; read-out: Internalization EC50
T1 construct: host or cells: PathHunter CHO-K1 SST2 cells
In short: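 Four-parameter nonlinear fits of background-corrected luminescence (duplicate means) gave IC50s. NDCs were serially diluted 1:3 over 11 points from a 10 uM final top concentration and incubated 90 min at 37 C with human SST2 CHO-K1 cells plated 48 h earlier at 2500/well. Beta-Glo read-out developed 60 min at RT.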

[2] = target: T2, human somatostatin receptor subtype 2 (Homo sapiens, UniProt P30874); assay: Functional assay for SSTR2 agonists (HTRF cAMP); settings: CHO-K1 cells stably expressing human SST2; NKH477-stimulated cAMP; 20 min at 37 C; read-out: hSST2 cAMP Avg EC50
T2 construct: expressed in transfected cells
In short: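 Agonist activity read as fall in intracellular cAMP: HTRF 665/620 nm ratio regressed to a cAMP standard curve, EC50 fitted. Stable human SSTR2 CHO-K1 cells exposed 20 min at 37 °C to compound, final concentrations typically 0-10,000 nM.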

T2 sequence (P30874 whole entry): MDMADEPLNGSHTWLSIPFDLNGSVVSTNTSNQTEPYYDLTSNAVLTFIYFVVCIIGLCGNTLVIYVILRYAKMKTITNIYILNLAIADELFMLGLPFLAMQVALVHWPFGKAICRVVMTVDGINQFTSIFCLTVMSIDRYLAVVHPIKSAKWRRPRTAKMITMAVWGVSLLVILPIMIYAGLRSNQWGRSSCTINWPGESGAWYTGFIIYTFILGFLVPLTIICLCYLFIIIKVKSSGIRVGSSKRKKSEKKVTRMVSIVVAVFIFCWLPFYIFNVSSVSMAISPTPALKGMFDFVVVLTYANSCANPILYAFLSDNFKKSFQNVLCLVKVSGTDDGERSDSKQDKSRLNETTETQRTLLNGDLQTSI
T1 sequence (P30874 whole entry): as above

| Structure (SMILES) | EC50 [1] [nM] | EC50 (SST2) [nM] | EC50 [2] [nM] |
| --- | --- | --- | --- |
| CC[C@H](C)[C@@H]([C@@H](CC(=O)N1CCC[C@H]1[C@H](OC)[C@@H](C)C(=O)N[C@H](C)[C@@H](O)c1ccccc1)OC)N(C)C(=O)[C@@H](NC(=O)[C@H](C(C)C)N(C)C(=O)OCc1ccc(NC(=O)[C@H](CCCNC(N)=O)NC(=O)[C@@H](NC(=O)c2cn(CCOCCC(=O)NCCNc3ncc(-c4cc(C)cc(F)c4)c(N4CCC(N)CC4)c3-c3nc4cc(Cl)ccc4[nH]3)nn2)C(C)C)c(O[C@@H]2O[C@H](C(=O)N3CCNCC3)[C@@H](O)[C@H](O)[C@H]2O)c1)C(C)C [Compound 237] | 8.2 | 8.4 | 0.15 |
| CC[C@H](C)[C@@H]([C@@H](CC(=O)N1CCC[C@H]1[C@H](OC)[C@@H](C)C(=O)N[C@H](C)[C@@H](O)c1ccccc1)OC)N(C)C(=O)[C@@H](NC(=O)C(C(C)C)N(C)C(=O)OCc1ccc(NC(=O)[C@H](CCCNC(N)=O)NC(=O)[C@@H](NC(=O)CCOCCC(=O)NCCNc2ncc(-c3cc(C)cc(F)c3)c(N3CCC(N)CC3)c2-c2nc3ccc(Cl)cc3[nH]2)C(C)C)c(O[C@@H]2O[C@H](C(=O)N3CCN(CCO)CC3)[C@@H](O)[C@H](O)[C@H]2O)c1)C(C)C (stereo partly drawn) [Compound 229] | 4 | 4.8 | 0.1 |
| CC[C@H](C)[C@@H]([C@@H](CC(=O)N1CCC[C@H]1[C@H](OC)[C@@H](C)C(=O)N[C@H](C)[C@@H](O)c1ccccc1)OC)N(C)C(=O)[C@@H](NC(=O)[C@H](C(C)C)N(C)C(=O)OCc1ccc(NC(=O)[C@H](CCCNC(N)=O)NC(=O)[C@@H](NC(=O)CCOCCC(=O)NCCNc2ncc(-c3cc(C)cc(F)c3)c(N3CCC(N)CC3)c2-c2nc3ccc(Cl)cc3[nH]2)C(C)C)cc1C(=O)N[C@@H](CCCNC(=O)CCCCc1ccc(I)cc1)C(=O)O)C(C)C [Compound 247] | 18 | 1.4 | 0.19 |
| CC[C@H](C)[C@@H]([C@@H](CC(=O)N1CCC[C@H]1[C@H](OC)[C@@H](C)C(=O)N[C@H](C)[C@@H](O)c1ccccc1)OC)N(C)C(=O)[C@@H](NC(=O)[C@H](C(C)C)N(C)C(=O)OCc1ccc(NC(=O)[C@H](CCCNC(N)=O)NC(=O)[C@@H](NC(=O)CCOCCC(=O)NCCNc2ncc(-c3cc(C)cc(F)c3)c(N3CCC(N)CC3)c2-c2nc3ccc(Cl)cc3[nH]2)C(C)C)c(O[C@@H]2O[C@H](C(=O)N[C@@H](CCCCNC(=O)CCCCc3ccc(I)cc3)C(=O)O)[C@@H](O)[C@H](O)[C@H]2O)c1)C(C)C [Compound 54] | 20 | 2.1 | 0.26 |
| CC[C@H](C)[C@@H]([C@@H](CC(=O)N1CCC[C@H]1[C@H](OC)[C@@H](C)C(=O)N[C@H](C)[C@@H](O)c1ccccc1)OC)N(C)C(=O)[C@@H](NC(=O)[C@H](C(C)C)N(C)C(=O)OCc1ccc(NC(=O)[C@H](CCCNC(N)=O)NC(=O)[C@@H](NC(=O)c2cc(NCCOCCC(=O)NCCNc3ncc(-c4cc(C)cc(F)c4)c(N4CCC(N)CC4)c3-c3nc4ccc(Cl)cc4[nH]3)cc(C(=O)NCCS(=O)(=O)O)c2)C(C)C)cc1)C(C)C [Compound 187] | 1800 | 3.7 | 0.5 |
| CC[C@H](C)[C@@H]([C@@H](CC(=O)N1CCC[C@H]1[C@H](OC)[C@@H](C)C(=O)N[C@H](C)[C@@H](O)c1ccccc1)OC)N(C)C(=O)[C@@H](NC(=O)[C@H](C(C)C)N(C)C(=O)OCc1ccc(NC(=O)[C@H](CCCNC(N)=O)NC(=O)[C@@H](NC(=O)CCOCCOCCOCCOCCNC(=O)CCNc2ncc(-c3cc(C)cc(F)c3)c(N3CCC(N)CC3)c2-c2nc3ccc(Cl)cc3[nH]2)C(C)C)cc1)C(C)C [Compound 196] ({X1-βAla-PEG4}-V[Cit][PABC][NMeV]V[Dil][Dolaproine]-X2) | 28 | 8.6 | 0.29 |
| CC[C@H](C)[C@@H]([C@@H](CC(=O)N1CCC[C@H]1[C@H](OC)[C@@H](C)C(=O)N[C@H](C)[C@@H](O)c1ccccc1)OC)N(C)C(=O)[C@@H](NC(=O)[C@H](C(C)C)N(C)C(=O)OCc1ccc(NC(=O)[C@H](CCCNC(N)=O)NC(=O)[C@@H](NC(=O)c2cc(NC(=O)CCCC(=O)NCCNc3ncc(-c4cc(C)cc(F)c4)c(N4CCC(N)CC4)c3-c3nc4ccc(Cl)cc4[nH]3)cc(C(=O)NC[C@@H](N)C(=O)O)c2)C(C)C)cc1)C(C)C [Compound 170] | 22 | 12 | 0.31 |
| CC[C@H](C)[C@@H]([C@@H](CC(=O)N1CCC[C@H]1[C@H](OC)[C@@H](C)C(=O)N[C@H](C)[C@@H](O)c1ccccc1)OC)N(C)C(=O)[C@@H](NC(=O)[C@H](C(C)C)N(C)C(=O)OCc1ccc(NC(=O)[C@H](CCCNC(N)=O)NC(=O)[C@@H](NC(=O)[C@@H](NC(=O)CCOCCC(=O)NCCNc2ncc(-c3cc(C)cc(F)c3)c(N3CCC(N)CC3)c2-c2nc3ccc(Cl)cc3[nH]2)c2cnn(C)c2)C(C)C)c(OCC(=O)O)c1)C(C)C [Compound 203] | 71 | 7.7 | 0.11 |
| CC[C@H](C)[C@@H]([C@@H](CC(=O)N1CCC[C@H]1[C@H](OC)[C@@H](C)C(=O)N[C@H](C)[C@@H](O)c1ccccc1)OC)N(C)C(=O)[C@@H](NC(=O)[C@H](C(C)C)N(C)C(=O)OCc1ccc(NC(=O)[C@H](CCCNC(N)=O)NC(=O)[C@@H](NC(=O)CCOCCC(=O)N(C)CC(=O)NCCNc2ncc(-c3cc(C)cc(F)c3)c(N3CCC(N)CC3)c2-c2nc3ccc(Cl)cc3[nH]2)C(C)C)c(O[C@@H]2O[C@H](C(=O)NCCO)[C@@H](O)[C@H](O)[C@H]2O)c1)C(C)C [Compound 207] | 8.4 | 5.9 | 0.23 |
| CC[C@H](C)[C@@H]([C@@H](CC(=O)N1CCC[C@H]1[C@H](OC)[C@@H](C)C(=O)N[C@H](C)[C@@H](O)c1ccccc1)OC)N(C)C(=O)[C@@H](NC(=O)[C@H](C(C)C)N(C)C(=O)OCc1ccc(NC(=O)[C@H](CCCNC(N)=O)NC(=O)[C@@H](NC(=O)CCOCCC(=O)NCCNc2ncc(-c3cc(C)cc(F)c3)c(N3CCC(N)CC3)c2-c2nc3ccc(Cl)cc3[nH]2)C(C)C)c(O[C@@H]2O[C@H](C(=O)N(C)CC(=O)O)[C@@H](O)[C@H](O)[C@H]2O)c1)C(C)C [Compound 216] | 8.6 | 3 | 0.076 |
| CC[C@H](C)[C@@H]([C@@H](CC(=O)N1CCC[C@H]1[C@H](OC)[C@@H](C)C(=O)N[C@H](C)[C@@H](O)c1ccccc1)OC)N(C)C(=O)[C@@H](NC(=O)[C@H](C(C)C)N(C)C(=O)OCc1ccc(NC(=O)[C@H](CCCNC(N)=O)NC(=O)[C@@H](NC(=O)CCOCCC(=O)N(C)CC(=O)NCCNc2ncc(-c3cc(C)cc(F)c3)c(N3CCC(N)CC3)c2-c2nc3ccc(Cl)cc3[nH]2)C(C)C)c(OCC(N)=O)c1)C(C)C [Compound 21] | 13 | 7.6 | 0.096 |
| CC[C@H](C)[C@@H]([C@@H](CC(=O)N1CCC[C@H]1[C@H](OC)[C@@H](C)C(=O)N[C@H](C)[C@@H](O)c1ccccc1)OC)N(C)C(=O)[C@@H](NC(=O)[C@H](C(C)C)N(C)C(=O)OCc1ccc(NC(=O)[C@H](CCCNC(N)=O)NC(=O)[C@@H](NC(=O)CCCC(=O)N(C)CC(=O)NCCNc2ncc(-c3cc(C)cc(F)c3)c(N3CCC(N)CC3)c2-c2nc3ccc(Cl)cc3[nH]2)C(C)C)c(O[C@@H]2O[C@H](C(=O)NCCN)[C@@H](O)[C@H](O)[C@H]2O)c1)C(C)C [Compound 209] | 1.5 | 2.7 | 0.11 |
| CC[C@H](C)[C@@H]([C@@H](CC(=O)N1CCC[C@H]1[C@H](OC)[C@@H](C)C(=O)N[C@H](C)[C@@H](O)c1ccccc1)OC)N(C)C(=O)[C@@H](NC(=O)[C@H](C(C)C)N(C)C(=O)OCc1ccc(NC(=O)[C@H](CCCNC(N)=O)NC(=O)[C@@H](NC(=O)CCOCCNC(=O)[C@H](CCC(=O)O)NC(=O)[C@H](CCC(=O)O)NC(=O)CCOCCOCCOCCOCCC(=O)NCCNc2ncc(-c3cc(C)cc(F)c3)c(N3CCC(N)CC3)c2-c2nc3ccc(Cl)cc3[nH]2)C(C)C)cc1)C(C)C [Compound 190] (X3-EE[PEG1]V[Cit][PABC][NMeV]V[Dil][Dolaproine]-X2) | 3200 | 14 | 0.33 |
| CC[C@H](C)[C@@H]([C@@H](CC(=O)N1CCC[C@H]1[C@H](OC)[C@@H](C)C(=O)N[C@H](C)[C@@H](O)c1ccccc1)OC)N(C)C(=O)[C@@H](NC(=O)[C@H](C(C)C)N(C)C(=O)OCc1ccc(NC(=O)[C@H](CCCNC(N)=O)NC(=O)[C@@H](NC(=O)CCOCCC(=O)NCCNc2ncc(-c3cc(C)cc(F)c3)c(N3CCC(N)CC3)c2-c2nc3ccc(Cl)cc3[nH]2)C(C)C)c(O[C@H]2[C@H](O)[C@@H](O)[C@H](O)[C@@H](C(=O)N(C)CC(=O)N(C)CC(=O)N(C)CC(=O)O)[C@H]2O)c1)C(C)C [Compound 236] | 9.9 | 5.1 | 0.14 |
| CC[C@H](C)[C@@H]([C@@H](CC(=O)N1CCC[C@H]1[C@H](OC)[C@@H](C)C(=O)N[C@H](C)[C@@H](O)c1ccccc1)OC)N(C)C(=O)[C@@H](NC(=O)[C@H](C(C)C)N(C)C(=O)OCc1ccc(NC(=O)C(CCCNC(N)=O)NC(=O)C2(NC(=O)CCOCCC(=O)NCCNc3ncc(-c4cc(C)cc(F)c4)c(N4CCC(N)CC4)c3-c3nc4ccc(Cl)cc4[nH]3)CCC2)c(O[C@@H]2O[C@H](C(=O)O)[C@@H](O)[C@H](O)[C@H]2O)c1)C(C)C (stereo partly drawn) [Compound 242] | 70 | 2.5 | 0.045 |

Source: US20260007758A1, “SO[…]-2 RECEPTOR (SST2R) NON-PEPTIDE DRUG CONJUGATES AND USES THEREOF” (Crinetics Pharmaceuticals, Inc., priority 2024, published 2026)
